Test results taken from publication PMC9343874, “Comparative Pharmacokinetics of Cinobufacini Capsule and Injection by UPLC-MS/MS” (Frontiers in Pharmacology, 2022).
Read-outs that look alike come from different tables or passages of the source.

Legend:
[1] = Pharmacokinetic study in rats after oral administration of cinobufacini capsule (UPLC-MS/MS of plasma); assay type: in vivo, rat; settings: for AUC(0-inf) / AUC(0-t) / Cmax / Tmax / CL/F / MRT last / MRT inf / half-life / Vd/F: male, Sprague-Dawley, in vivo, rat plasma, mean ± SD, n = 6; for CL/F: read-out: CLz/F (converted); for MRT last: read-out: MRT0-t; for MRT inf: read-out: MRT0-∞; for half-life: read-out: T1/2z (converted); for Vd/F: read-out: Vz/F
Procedure: (§1) Male Sprague–Dawley rats (weighing 200–220 g) of SPF grade were offered by Sippr/BK laboratory Animal, Corp., Ltd. (Shanghai, China) and fed in the Laboratory Animal Center of the Shanghai University of Traditional Chinese Medicine. All the rats were kept under environmentally controlled conditions with constant temperature (22–24°C) and humidity (60–65%). The animal experiment program in the present research was approved by the Animal Committee of the Shanghai University of Traditional Chinese Medicine (PZSHUTCM210618012).
(§2) An Agilent 1290 liquid chromatographic system includes a G4220A quaternary pump, a G1326C column incubator, a G4226A automatic sampler, and a G1330B degasser. The column temperature was set to 35°C. A measure of 5 µL of samples were separated in an Agilent SB-C18 column (2.1 mm ×50 mm, 1.8 μm) and eluted at 0.3 ml/min, followed by gradient elution with water (0.1% V/V formic acid) (A) and acetonitrile (B) (0–1 min, 20%–20% B; 1–3.5 min, 20%–80% B; 4–4.1 min, 80%-20% B; 4.1–6 min, 20% B). The total run time was 6 minutes.
(§3) An Agilent 1290 Infinity series UPLC system was combined with an Agilent 6460 series triple quadrupole mass spectrometer (Agilent Technologies, Santa Clara, CA, United States) to quantify all 13 analytes in an ESI-positive ionization mode. Quantitative analysis was performed in an MRM mode. The mass spectrum conditions were as follows: capillary voltage, 4000V; drying gas (N2), gas flow rate: 10 L/min; sprayer, 30 psi; gas temperature 350°C; The delta EMV (+) 200 V; collision gas (N2); dwell time, 25 ms. Agilent’s MassHunter Workstation software was used for data collection, peak area calculation, and quantitative analysis.
(§4) A measure of 50 µL of the plasma sample was mixed with 10 µL of the internal standard solution (345 ng/ml) in a 1.5-ml centrifuge tube and vortexed for 5 min. The samples were extracted by 500 µL of ethyl acetate for 5 min and centrifuged at 4°C for 10 min (18000 rpm). All the supernatants were collected into another 1.5-ml centrifuge tube, dried under a gentle stream of nitrogen at 37°C, and then added with 50 µL of 80% methanol for resolution. The resolution samples were centrifuged at 4°C for 10 min (18000 rpm), and 5 µL supernatant was extracted and injected for analysis.
(§5) Twenty-four male Sprague–Dawley rats (weigh 200–220 g) were divided into four groups with six rats in each group randomly, including three capsule groups at three different doses and one injection group. In the instructions for cinobufacini capsule and injection, the clinical dosage for adults is 2 g per 70 kg orally and 20 ml per 70 kg intravenously, converting to rat doses of 180 mg/kg and 1.8 ml/kg, respectively.
(§6) In the pre-experiments, we compared cinobufacini capsule of 180 mg/kg (one-time clinical dose) and 900 mg/kg (five times of clinical dose) and Cinobufacini injection of 1.8 ml/kg, but concentrations of some compounds in plasma were too low and difficult to be quantified. […] The experimental rats were led to fast the night and were free to get access to water for 12 h before the pharmacokinetic study. After administration, blood samples (approximately 150 μL) of rats were collected via retro-orbital sinus into heparinized centrifuge tubes at 0.05, 0.083, 0.25, 0.5, 0.75, 1, 2, 4, 6, 8, and 10 h. After centrifugation at 5,000 rpm for 10 min, the plasma was transferred to 1.5-ml polypropylene tubes and stored at −80°C until UPLC-MS/MS analysis.
(§7) GraphPad Prism software (version 8.0.2) was used to draw the mean plasma concentration–time curves of all analytes. The pharmacokinetic parameters were calculated by DAS 3.2.8 software. Meanwhile, the pharmacokinetic data on rats were presented as mean ± standard deviation (SD). Differences of pharmacokinetic parameters between groups were analyzed by the t-test using SPSS software (version 26.0). Differences were considered significant statistically when the p-values were <0.05 and very significant statistically when the p-values were <0.01.

[2] = Pharmacokinetic study in rats after intravenous administration of cinobufacini injection (UPLC-MS/MS of plasma); assay type: in vivo, rat
Procedure: as §1, §2, §3, §4, §5, §6, §7

[3] = Stability of analytes in rat plasma QC samples under storage conditions; assay type: physicochemical; settings: n = 6; for Stability during 24 h at 4°C, RE: post-treatment storage in autosampler; for −80°C for 30 days, RE / Three freeze–thaw cycles, RE: rat plasma; for −80°C for 30 days, RE: long-term; for Three freeze–thaw cycles, RE: −80°C to room temperature
Procedure: The stability of QC samples in six replicates at three concentrations (low, medium, and high levels) was analyzed under different storage conditions: the post-treatment stability was analyzed after storage in an autosampler (4°C) for 24 h. Freeze–thaw stability was investigated after three freeze–thaw cycles (−80°C to room temperature as one cycle). Long-term stability was assessed by analyzing QC samples kept at −80°C for 30 days. The concentrations of the analytes in the plasma samples and the QC samples were calculated by the calibration standard curve prepared each day. The stabilities of analytes were acceptable when the accuracy (RE, %) and precision (RSD, %) of all QC samples in all storage conditions were within ±15% compared to nominal concentrations.

[4] = oral cinobufacini capsule 0.9 g/kg (low)
[5] = oral cinobufacini capsule 1.8 g/kg (medium)
[6] = oral cinobufacini capsule 3.6 g/kg (high)
[7] = high QC level (249.58–250.28 ng/ml)
[8] = medium QC level (49.92–50.06 ng/ml)

SMILES | AUC(0-inf) [1, 4] [ng·h/mL] | AUC(0-t) [1, 4] [ng·h/mL] | Cmax [1, 4] [ng/mL] | Tmax [1, 4] [min] | CL/F [1, 4] [mL/min/kg] | MRT last [1, 4] [min] | MRT inf [1, 4] [min] | half-life [1, 4] [min] | Vd/F [1, 4] [L/kg] | AUC(0-inf) [1, 5] [ng·h/mL] | AUC(0-t) [1, 5] [ng·h/mL] | Cmax [1, 5] [ng/mL] | Tmax [1, 5] [min] | CL/F [1, 5] [mL/min/kg] | MRT last [1, 5] [min] | MRT inf [1, 5] [min] | half-life [1, 5] [min] | Vd/F [1, 5] [L/kg] | AUC(0-inf) [1, 6] [ng·h/mL] | AUC(0-t) [1, 6] [ng·h/mL] | also measured
C[C@]12CC[C@H](O)C[C@H]1CC[C@@H]1[C@@H]2CC[C@]2(C)[C@@H](c3ccc(=O)oc3)CC[C@]12O [BF, bufalin] | 143 ± 79.4 | 139 ± 71.9 | 74.7 ± 30.7 | 15 | 26.2 | 122 ± 37.2 | 131 ± 54 | 65.4 ± 54.6 | 1.81 ± 0.56 | 317 ± 134 | 310 ± 131 | 189 ± 43.2 | 25.8 ± 7.2 | 21.5 | 87 ± 14.4 | 95.4 ± 29.4 | 72 ± 37.2 | 2.15 ± 1.21 | 461 ± 90.4 | 457 ± 91.2 | Cmax [1, 6]: 322 ± 55.5 ng/mL; Tmax [1, 6]: 27.6 ± 10.2 min; CL/F [1, 6]: 27.3 mL/min/kg; MRT last [1, 6]: 83.4 ± 25.8 min; MRT inf [1, 6]: 89.4 ± 33 min; half-life [1, 6]: 76.2 ± 43.2 min; Vd/F [1, 6]: 3.02 ± 2.01 L/kg; time to reach maximum plasma concentration (Cmax) ([1]; rats, after gavage administration of cinobufacini capsule): ≤ 60 min; concentrations in most rat plasma samples relative to LLOQ ([2]; after intravenous administration of cinobufacini injection, pharmacokinetic parameters could not be calculated): far below the LLOQs; detection in rat plasma ([2]; cinobufacini injection group, intravenous): could be detected; Stability during 24 h at 4°C, RE [3, 7]: −8.5%; Stability during 24 h at 4°C, RE ([3]; low QC level (4.99–5.00 ng/ml)): 3.3%; Stability during 24 h at 4°C, RE [3, 8]: −8.6%; −80°C for 30 days, RE [3, 7]: 1.4%; −80°C for 30 days, RE ([3]; low QC level (4.99–5.00 ng/ml)): 8.7%; −80°C for 30 days, RE [3, 8]: −12.6%; Three freeze–thaw cycles, RE [3, 7]: 0.8%; Three freeze–thaw cycles, RE ([3]; low QC level (4.99–5.00 ng/ml)): −7.7%; Three freeze–thaw cycles, RE [3, 8]: −10.1%
C[C@]12CC[C@H](O)C[C@H]1CC[C@@H]1[C@@H]2[C@H](O)C[C@]2(C)[C@@H](c3ccc(=O)oc3)CC[C@]12O [GBL, gamabufotalin] | 13.6 ± 3.08 | 10.8 ± 2.45 | 13.3 ± 5.28 | 15 | 150 | 24.6 ± 6.6 | 38.4 ± 9.6 | 22.2 | 4.75 ± 0.98 | 23.4 ± 15 | 21.9 ± 11.6 | 21.5 ± 7.57 | 27.6 ± 13.8 | 210 | 43.8 ± 6 | 47.4 ± 13.2 | 16.8 ± 15.6 | 3.03 ± 2.02 | 54.5 ± 12.4 | 54 ± 12 | Cmax [1, 6]: 49.5 ± 10.9 ng/mL; Tmax [1, 6]: 21.6 ± 12 min; CL/F [1, 6]: 153 mL/min/kg; MRT last [1, 6]: 49.8 ± 7.2 min; MRT inf [1, 6]: 51.6 ± 8.4 min; half-life [1, 6]: 18 ± 9.6 min; Vd/F [1, 6]: 3.74 ± 1.66 L/kg; Stability during 24 h at 4°C, RE [3, 7]: 5.4%; Stability during 24 h at 4°C, RE ([3]; low QC level (4.99–5.00 ng/ml)): 12.0%; Stability during 24 h at 4°C, RE [3, 8]: 10.9%; −80°C for 30 days, RE [3, 7]: −4.9%; −80°C for 30 days, RE ([3]; low QC level (4.99–5.00 ng/ml)): 8.3%; −80°C for 30 days, RE [3, 8]: 12.4%; Three freeze–thaw cycles, RE [3, 7]: −0.6%; Three freeze–thaw cycles, RE ([3]; low QC level (4.99–5.00 ng/ml)): 13.2%; Three freeze–thaw cycles, RE [3, 8]: 10.7%
C[C@]12CC[C@H](O)C[C@@]1(O)CC[C@@H]1[C@@H]2CC[C@]2(C)[C@@H](c3ccc(=O)oc3)CC[C@]12O [TCG, telocinobufagin] | 24.5 ± 10.3 | 24.5 ± 10.3 | 35.2 ± 21 | 21.6 ± 12 | 128 | 38.4 ± 3.6 | 38.4 ± 3.6 | 9.6 ± 0.6 | 1.75 ± 0.6 | 89.9 ± 24.1 | 89.7 ± 23.8 | 109 ± 41.3 | 17.4 ± 5.4 | 66.2 | 43.8 ± 6.6 | 44.4 ± 6.6 | 12.6 ± 6.6 | 1.13 ± 0.37 | 217 ± 82.4 | 217 ± 82.4 | Cmax [1, 6]: 253 ± 83.8 ng/mL; Tmax [1, 6]: 19.2 ± 7.2 min; CL/F [1, 6]: 60.3 mL/min/kg; MRT last [1, 6]: 49.8 ± 7.8 min; MRT inf [1, 6]: 49.8 ± 7.8 min; half-life [1, 6]: 31.8 ± 1.2 min; Vd/F [1, 6]: 2.76 ± 1.67 L/kg; Stability during 24 h at 4°C, RE [3, 7]: −4.7%; Stability during 24 h at 4°C, RE ([3]; low QC level (4.99–5.00 ng/ml)): −0.3%; Stability during 24 h at 4°C, RE [3, 8]: −4.2%; −80°C for 30 days, RE [3, 7]: −2.1%; −80°C for 30 days, RE ([3]; low QC level (4.99–5.00 ng/ml)): 0.9%; −80°C for 30 days, RE [3, 8]: 3.8%; Three freeze–thaw cycles, RE [3, 7]: -6.6%; Three freeze–thaw cycles, RE ([3]; low QC level (4.99–5.00 ng/ml)): 5.8%; Three freeze–thaw cycles, RE [3, 8]: 0.0%
